Entries after “also recorded” stand apart in the source; their conditions may differ. Marks after values point to notes of the source that are not given here.
How the values were obtained:
[1] = system: female and male WT and GDF-8 KO mice; assay: Adipose, muscle and heart tissue weights in WT and GDF-8 KO mice (Example 2); details: 200 ppm in diet, 21 days
male and female ICR mice = assay: 21 day oral (diet) treatment of mice: selected tissue weights, fat pads, BAT, muscle, organs (Example 1); assay type: in vivo; details: 21 days; for Brown adipose tissue (BAT) mass compared to control/other treatments: 200 ppm clenbuterol in diet; for Brown adipose tissue (BAT) mass compared to control/other treatments / Rp and Epi/Par fat pad weights compared to control: p<0.05; for Rp and Epi/Par fat pad weights compared to control: 200 ppm clenbuterol, 800 ppm ractopamine in diet
Experimental: The effects of clenbuterol, a β2-AR agonist, and ractopamine, a β1/β2-AR agonist, on growth, adiposity and adipose tissue apoptosis in male and female mice have been tested by feeding diets containing control, 200 ppm clenbuterol, or 200 or 800 ppm ractopamine. Food intake (FI) was measured daily; body weight (BW) and temperatures (BT) were measured on days 0, 3, 7, 10, 14, 17, and 20. On day 21 mice were sacrificed, body composition was determined using PIXImus densitometry, and muscle and adipose tissues were collected. There were no treatment effects on BT, FI, BW, feed efficiency or body composition. Retroperitoneal (Rp) and epididymal/parametrial (Epi/Par) fat pad masses were reduced in both 800 ppm ractopamine (40±3 and 207±20 mg, respectively) and clenbuterol (35±7 and 211±22 mg) treated mice compared to control (66±8 and 319±30 mg, p<0.05). Brown adipose tissue (BAT) mass was greater (p<0.05) in clenbuterol treated mice compared to other treatments. Adipose tissue apoptosis (% DNA fragmentation) was increased in Epi/Par fat pads in clenbuterol (5.2+1.1%) and 800 ppm ractopamine (4.1±0.8%) treated mice compared to control (1.7+0.4%, p<0.05).
Animals: Five week old male (n=20) and female (n=20) ICR mice (Harlan Research Laboratories, Indianapolis, Ind.) were allowed to acclimate for one week prior to the experiment start date. Animals were housed singly in suspended wire cages and were provided ground rodent chow (ProLab® RMH 2500; Purina Mills, St. Louis, Mo.) and water ad libitum. Ambient room temperature was maintained and the light/dark cycle was 0600/1800 hours, respectively. Animals were cared for in accordance with the Guide for the Care and Use of Laboratory Animals (Institute of Laboratory Animal Resources Commission on Life Sciences National Research Council. Guide for the Care and Use of Laboratory Animals. National Academy of Sciences, 1996). Prior to the start of the study, animals were briefly anesthetized with isofluorane and an IPPT-200 transponder (programmable ID and temperature, BMDS, Seaford, Del.) was implanted subcutaneously between the scapulae.
Materials: Test articles included clenbuterol (Sigma Chemical Company, St. Louis, Mo., item # C5423) and ractopamine hydrochloride—Paylean® 9 (Elanco Animal Health, Indianapolis, Ind.). Clenbuterol is available as a pure product, and ractopamine is readily available as a type A medicated article. Paylean® 9 contains about 20 g ractopamine hydrochloride per kilogram in a ground corncob base. In order to achieve doses of 200 and 800 ppm it was necessary to add about […] of product per kilogram of diet. Control and clenbuterol diets were prepared with about 80 g of alphacel, which is a diluent used to mimic the effect of the corncob in the ractopamine product. The dose of clenbuterol used in this experiment was similar to those used in previous experiments with mice (Agbenyega E T, and Wareham A C. Effect of clenbuterol on skeletal muscle atrophy in mice induced by the glucocorticoid dexamethasone. Comp Biochem Physiol Comp Physiol 1992;102:141-145, Rothwell N. J., and Stock M J. Modification of body composition by clenbuterol in normal and dystrophic (mdx) mice. Biosci Rep 1985;5:755-760, Hyltander A, Svaninger G, and Lundholm K. The effect of clenbuterol on body composition in spontaneously eating tumour-bearing mice. Biosci Rep 1993;13:325-331, Hayes A, and Williams DA. Long-term clenbuterol administration alters the isometric contractile properties of skeletal muscle from normal and dystrophin-deficient mdx mice. Clin Exp Pharmacol Physiol 1994;21:757-765, Dupont-Versteegden EE. Exercise and clenbuterol as strategies to decrease the progression of muscular dystrophy in mdx mice. J Appl Physiol 1996;80:734-741). […]

[2] = 200 ppm in diet, male and female mice

For `CC(C)(C)NCC(O)c1cc(Cl)c(N)c(Cl)c1` (stereo not shown) [Clenbuterol, clenbuterol], the “EPI/PAR (and RP) fat pad weights compared to control” value [1] was “decreased; also recorded: reduced”, the “Heart weight compared to control” value [1] was “increased” and the “Weights of dissected skeletal muscles” value [1] was “did not affect; also recorded: no effect”. For the same compound, the “EPI/PAR (and RP) fat pad weights compared to control” value ([1]; listed as clenbuterol) was “reduced; also recorded: smaller”, the “Heart weight compared to control” value ([1]; listed as clenbuterol) was “significantly increased” and the “Brown adipose tissue (BAT) mass compared to control/other treatments” value (male and female ICR mice) was “increased BAT mass”. The “Brown adipose tissue (BAT) mass compared to control/other treatments” value (male and female ICR mice; listed as clenbuterol) was “greater; also recorded: significantly increased”, the “Rp and Epi/Par fat pad weights compared to control” value (male and female ICR mice) was “decreased mass of Rp and Epi/Par fat pads in females only” and the “Rp and Epi/Par fat pad weights compared to control” value (male and female ICR mice; listed as clenbuterol) was “reduced”. For the same compound, the “BAT tissue weight, mean” value (male and female ICR mice; [2]) was “.124”, the “Biceps tissue weight, mean” value (male and female ICR mice; [2]) was “.145” and the “Epi/Par tissue weight, mean” value (male and female ICR mice; [2]) was “.211”. For the same compound, the “Heart tissue weight, mean” value (male and female ICR mice; [2]) was “.164”, the “Ing tissue weight, mean” value (male and female ICR mice; [2]) was “.150” and the “Kidney tissue weight, mean” value (male and female ICR mice; [2]) was “.582”. The “Liver tissue weight, mean” value (male and female ICR mice; [2]) was 2.14, the “Rp tissue weight, mean” value (male and female ICR mice; [2]) was “.035” and the “Retroperitoneal (Rp) fat pad mass” value (male and female ICR mice; 200 ppm in diet, mice, control 66±8 mg) was 35 ± 7 mg. The “Epididymal/parametrial (Epi/Par) fat pad mass” value (male and female ICR mice; 200 ppm in diet, mice, control 319±30 mg) was 211 ± 22 mg, the “Muscle mass / muscle weight, body protein or fat content” value (male and female ICR mice; diet, ICR mice) was “no effect” and the “Par weight, mean” value (male and female ICR mice; females, 200 ppm in diet) was “.18^b”. The “Epi weight, mean” value (male and female ICR mice; males, 200 ppm in diet) was “.24^ab”.
